A short description of experiment [1]: DPPH radical scavenging assay. As for the experimental part: (§1) The DPPH radical scavenging assay and the ABTS assay were used to assess anti-oxidant activity, as previously described in detail by Nguyen et al.. In a 96-well plate, 100 μL of samples (at various concentrations) or distilled water (blank sample) were combined with 25 μL of 0.75 mM DPPH solution (dissolved in methanol). After that, the plates were kept in complete darkness for 30 min. Subsequently, the absorbance was determined at a wavelength of 517 nm. For the ABTS radical-scavenging activity assay, test samples (at various concentrations) were mixed with pre-diluted ABTS solution (reaching an optical density of 0.7). The reaction was allowed to occur for 10 min at room temperature. The absorbance was measured at 734 nm. Ascorbic acid was used as positive control.
(§2) All chemical assays were conducted in triplicate. […] The IC50 value (half-maximal inhibitory concentration of samples) was determined via a standard equation constructed by the inhibitory activity (%) and the respective concentration of the tested sample.

The nature of experiment [2]: ABTS radical-scavenging activity assay. As for the experimental part: as §1, §2
The target of experiment [3] is T1, acetylcholinesterase (AChE) (Electrophorus electricus, UniProt O42275).
T1 construct: purchased Sigma Aldrich
Put plainly: biochemical. As for the experimental part:
The anti-Alzheimer impact was assessed in vitro utilizing the key enzyme acetylcholinesterase inhibition assay, as described in an earlier study. In detail, 120 μL of phosphate buffer, 60 μL of tested sample, and 60 μL of enzymatic solution (0.5 mM) were mixed and incubated for fifteen minutes at 25 °C in a 96-well plate. This was followed by the addition of 30 μL of 5,5′-dithiobis-2-nitrobenzoic acid (0.003 M) and 40 μL of acetylthiocholine iodide (0.002 M). The reaction mixture was kept in an incubator at 25 °C for ten minutes. The absorbance of the solution was measured at 415 nm. Berberine chloride was used as a standard inhibitor of the enzyme.
as §2

Structures are written as SMILES. Where two headings read alike, the source gives them in different places.

Four compounds from PMC10609904 (Pharmaceuticals, 2023) can be followed below.

A word on the IC50: it is the concentration that gives 50% inhibition.

T1 sequence (O42275 24-633): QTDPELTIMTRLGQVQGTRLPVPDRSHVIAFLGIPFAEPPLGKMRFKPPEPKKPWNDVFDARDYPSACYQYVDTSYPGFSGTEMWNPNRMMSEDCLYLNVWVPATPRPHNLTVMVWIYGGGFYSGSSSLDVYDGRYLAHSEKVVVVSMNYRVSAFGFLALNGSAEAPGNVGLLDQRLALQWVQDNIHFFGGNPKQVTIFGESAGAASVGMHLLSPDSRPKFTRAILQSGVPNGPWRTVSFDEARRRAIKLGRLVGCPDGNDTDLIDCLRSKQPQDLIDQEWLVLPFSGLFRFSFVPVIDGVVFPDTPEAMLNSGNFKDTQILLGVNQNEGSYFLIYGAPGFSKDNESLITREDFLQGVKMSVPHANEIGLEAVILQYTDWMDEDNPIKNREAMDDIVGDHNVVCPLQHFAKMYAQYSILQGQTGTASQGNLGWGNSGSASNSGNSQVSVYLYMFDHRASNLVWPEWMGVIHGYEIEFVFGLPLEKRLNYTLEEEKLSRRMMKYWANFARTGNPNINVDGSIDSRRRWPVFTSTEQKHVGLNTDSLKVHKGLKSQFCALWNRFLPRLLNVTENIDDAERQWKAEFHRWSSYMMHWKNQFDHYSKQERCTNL

For the compound `O=C1O[C@H]([C@@H](O)CO)C(O)=C1O` [Vitamin C, Ascorbic acid], in experiment [1], the “DPPH IC50” value was found to be 38.4 ± 0.5 mg/L. In addition, in experiment [2], the “ABTS IC50” value turned out to be 23.0 ± 0.4 mg/L.
Consider `COc1cc(O)c2c(c1)oc(=O)c1c3cc(O)c(O)cc3oc21` [compound 1, Wedelolactone], for which the IC50 in experiment [3] (read-out: AChE IC50 (converted)) is 195 µM.
Compound `O=C(O)c1ccccc1O` [compound 8, Salicylic acid] showed an IC50 in experiment [3] of 405 µM.
`COc1ccc2cc3[n+](cc2c1OC)CCc1cc2c(cc1-3)OCO2` [compound 37, Berberine chloride] gave an IC50 in experiment [3] of 895 µM.
